Measurements: PubChem BioAssay (NCI)
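Following 48 hours of exposure in 96-well plates, responses at five concentrations were used to interpolate endpoints linearly. TGI marks complete inhibition of growth.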

Tests used:
Assay in all cases: NCI-60 cell line screen, 48 h
NCI-H522 lung = system: NCI-H522 lung
MOLT-4 leukemia = system: MOLT-4 leukemia
DU-145 prostate = system: DU-145 prostate
SF-268 CNS = system: SF-268 CNS
UACC-62 melanoma = system: UACC-62 melanoma
COLO 205 colon = system: COLO 205 colon
RPMI-8226 leukemia = system: RPMI-8226 leukemia
SF-295 CNS = system: SF-295 CNS
SN12C renal = system: SN12C renal
A498 renal = system: A498 renal
HS 578T breast = system: HS 578T breast
PC-3 prostate = system: PC-3 prostate
MDA-N = system: MDA-N
MCF7 breast = system: MCF7 breast
RXF 393 renal = system: RXF 393 renal
UO-31 renal = system: UO-31 renal
ACHN renal = system: ACHN renal
SNB-19 CNS = system: SNB-19 CNS
SK-OV-3 ovarian = system: SK-OV-3 ovarian
MALME-3M melanoma = system: MALME-3M melanoma
A549 NSCLC = system: A549 NSCLC
MDA-MB-435 = system: MDA-MB-435
HOP-62 NSCLC = system: HOP-62 NSCLC
M14 melanoma = system: M14 melanoma
HCT-116 colon = system: HCT-116 colon
BT-549 breast = system: BT-549 breast
OVCAR-4 ovarian = system: OVCAR-4 ovarian
MDA-MB-231 breast = system: MDA-MB-231 breast
NCI-H23 lung = system: NCI-H23 lung
NCI-H460 lung = system: NCI-H460 lung
IGROV1 ovarian = system: IGROV1 ovarian
SK-MEL-2 melanoma = system: SK-MEL-2 melanoma
KM12 colon = system: KM12 colon
CAKI-1 renal = system: CAKI-1 renal
EKVX NSCLC = system: EKVX NSCLC
SNB-75 CNS = system: SNB-75 CNS
HL-60(TB) leukemia = system: HL-60(TB) leukemia
SK-MEL-28 melanoma = system: SK-MEL-28 melanoma
T-47D breast = system: T-47D breast
K-562 leukemia = system: K-562 leukemia
U251 CNS = system: U251 CNS
NCI/ADR-RES ovarian = system: NCI/ADR-RES ovarian
TK-10 renal = system: TK-10 renal
HCT-15 colon = system: HCT-15 colon
CCRF-CEM leukemia = system: CCRF-CEM leukemia
HCC-2998 colon = system: HCC-2998 colon
LOX IMVI melanoma = system: LOX IMVI melanoma
OVCAR-8 ovarian = system: OVCAR-8 ovarian
786-0 renal = system: 786-0 renal
OVCAR-5 ovarian = system: OVCAR-5 ovarian
SW-620 colon = system: SW-620 colon
OVCAR-3 ovarian = system: OVCAR-3 ovarian
UACC-257 melanoma = system: UACC-257 melanoma
HT29 colon = system: HT29 colon
SK-MEL-5 melanoma = system: SK-MEL-5 melanoma
HOP-92 NSCLC = system: HOP-92 NSCLC
SF-539 CNS = system: SF-539 CNS
NCI-H226 lung = system: NCI-H226 lung

## O=C(c1ccccc1)c1ccc(N2C(=O)/C(=C/c3cccc(Oc4ccccc4)c3)N=C2c2ccccc2)c(N2C(=O)/C(=C/c3cccc(Oc4ccccc4)c3)N=C2c2ccccc2)c1
NCI-H522 lung
  TGI: 51 µM
MOLT-4 leukemia
  TGI: > 100 µM
DU-145 prostate
  TGI: > 100 µM
SF-268 CNS
  TGI: > 100 µM
UACC-62 melanoma
  TGI: 24.5 µM
COLO 205 colon
  TGI: 37.1 µM
RPMI-8226 leukemia
  TGI: 96.4 µM
SF-295 CNS
  TGI: > 100 µM
SN12C renal
  TGI: > 100 µM
A498 renal
  TGI: > 100 µM
HS 578T breast
  TGI: 88.5 µM
PC-3 prostate
  TGI: > 100 µM
MDA-N
  TGI: 69 µM
MCF7 breast
  TGI: 94.3 µM
RXF 393 renal
  TGI: > 100 µM
UO-31 renal
  TGI: > 100 µM
ACHN renal
  TGI: > 100 µM
SNB-19 CNS
  TGI: > 100 µM
SK-OV-3 ovarian
  TGI: > 100 µM
MALME-3M melanoma
  TGI: > 100 µM
A549 NSCLC
  TGI: > 100 µM
MDA-MB-435
  TGI: 31.5 µM
HOP-62 NSCLC
  TGI: > 100 µM
M14 melanoma
  TGI: > 100 µM
HCT-116 colon
  TGI: > 100 µM
BT-549 breast
  TGI: > 100 µM
OVCAR-4 ovarian
  TGI: > 100 µM
MDA-MB-231 breast
  TGI: > 100 µM
NCI-H23 lung
  TGI: > 100 µM
NCI-H460 lung
  TGI: 80.4 µM
IGROV1 ovarian
  TGI: > 100 µM
SK-MEL-2 melanoma
  TGI: 71.2 µM
KM12 colon
  TGI: > 100 µM
CAKI-1 renal
  TGI: > 100 µM
EKVX NSCLC
  TGI: > 100 µM
SNB-75 CNS
  TGI: > 100 µM
HL-60(TB) leukemia
  TGI: 35.9 µM
SK-MEL-28 melanoma
  TGI: > 100 µM
T-47D breast
  TGI: > 100 µM
K-562 leukemia
  TGI: > 100 µM
U251 CNS
  TGI: > 100 µM
NCI/ADR-RES ovarian
  TGI: 69.1 µM
TK-10 renal
  TGI: 79.4 µM
HCT-15 colon
  TGI: > 100 µM
CCRF-CEM leukemia
  TGI: > 100 µM
HCC-2998 colon
  TGI: 48.8 µM
LOX IMVI melanoma
  TGI: > 100 µM
OVCAR-8 ovarian
  TGI: > 100 µM
786-0 renal
  TGI: > 100 µM
OVCAR-5 ovarian
  TGI: > 100 µM
SW-620 colon
  TGI: > 100 µM
OVCAR-3 ovarian
  TGI: 69.8 µM
UACC-257 melanoma
  TGI: 71.7 µM
HT29 colon
  TGI: > 100 µM
SK-MEL-5 melanoma
  TGI: 30.7 µM
HOP-92 NSCLC
  TGI: > 100 µM

## C1CSCCSCCSCCSCCS1
NCI-H522 lung
  TGI: > 100 µM
MOLT-4 leukemia
  TGI: > 100 µM
DU-145 prostate
  TGI: > 100 µM
SF-268 CNS
  TGI: > 100 µM
UACC-62 melanoma
  TGI: > 100 µM
COLO 205 colon
  TGI: > 100 µM
RPMI-8226 leukemia
  TGI: > 100 µM
SF-295 CNS
  TGI: > 100 µM
SN12C renal
  TGI: > 100 µM
A498 renal
  TGI: > 100 µM
HS 578T breast
  TGI: > 100 µM
PC-3 prostate
  TGI: > 100 µM
MDA-N
  TGI: > 100 µM
MCF7 breast
  TGI: > 100 µM
RXF 393 renal
  TGI: > 100 µM
UO-31 renal
  TGI: > 100 µM
ACHN renal
  TGI: > 100 µM
SNB-19 CNS
  TGI: > 100 µM
SF-539 CNS
  TGI: > 100 µM
SK-OV-3 ovarian
  TGI: > 100 µM
A549 NSCLC
  TGI: > 100 µM
MDA-MB-435
  TGI: > 100 µM
HOP-62 NSCLC
  TGI: > 100 µM
M14 melanoma
  TGI: > 100 µM
HCT-116 colon
  TGI: > 100 µM
BT-549 breast
  TGI: > 100 µM
OVCAR-4 ovarian
  TGI: > 100 µM
MDA-MB-231 breast
  TGI: > 100 µM
NCI-H23 lung
  TGI: > 100 µM
NCI-H460 lung
  TGI: > 100 µM
IGROV1 ovarian
  TGI: > 100 µM
SK-MEL-2 melanoma
  TGI: > 100 µM
KM12 colon
  TGI: > 100 µM
CAKI-1 renal
  TGI: > 100 µM
EKVX NSCLC
  TGI: > 100 µM
SNB-75 CNS
  TGI: > 100 µM
HL-60(TB) leukemia
  TGI: > 100 µM
SK-MEL-28 melanoma
  TGI: > 100 µM
T-47D breast
  TGI: > 100 µM
K-562 leukemia
  TGI: > 100 µM
U251 CNS
  TGI: > 100 µM
NCI/ADR-RES ovarian
  TGI: > 100 µM
TK-10 renal
  TGI: > 100 µM
NCI-H226 lung
  TGI: > 100 µM
HCT-15 colon
  TGI: > 100 µM
HCC-2998 colon
  TGI: > 100 µM
LOX IMVI melanoma
  TGI: > 100 µM
OVCAR-8 ovarian
  TGI: > 100 µM
786-0 renal
  TGI: > 100 µM
OVCAR-5 ovarian
  TGI: > 100 µM
SW-620 colon
  TGI: > 100 µM
OVCAR-3 ovarian
  TGI: > 100 µM
UACC-257 melanoma
  TGI: > 100 µM
HT29 colon
  TGI: > 100 µM
SK-MEL-5 melanoma
  TGI: > 100 µM
HOP-92 NSCLC
  TGI: > 100 µM
